According to ChEMBL document CHEMBL6103594, “Synthesis and evolution of 16-membered macrolide carrimycin derivatives as a novel class of anti-HCoV-OC43 agents targeting viral FSE RNA” (Eur J Med Chem, 2025):

How the values were obtained:
[1] = Selectivity index, ratio of CC50 for cytotoxicity against human NCI-H460 cells to EC50 for antiviral activity against HCoV-OC43 infected in human NCI-H460 cells; type: toxicity, cell-based, NCI-460; details: read-out: Ratio CC50/EC50
[2] = Cytotoxicity against human NCI-H460 cells incubated for 72 hrs by CCK8 assay; type: toxicity, cell-based; details: read-out: EC50
Human coronavirus OC43 = assay: Antiviral activity against HCoV-OC43 infected in human NCI-H460 cells incubated for 72 hrs by CCK8 assay; type: functional, organism-based; details: Betacoronavirus 1, NCI-H460, 72 h

For `CO[C@@H]1[C@@H](O[C@@H]2O[C@H](C)[C@@H](O[C@H]3C[C@@](C)(O)[C@@H](O)[C@H](C)O3)[C@H](N(C)C)[C@H]2OC(C)=O)[C@@H](CC=O)C[C@@H](C)[C@@H](O[C@H]2CC[C@H](N(C)C)[C@@H](C)O2)/C=C/C=C/C[C@@H](C)OC(=O)C[C@H]1O`, the selectivity ratio [1] was greater than 6.71, the CC50 at 72 h [2] was greater than 200 µM and the EC50 (Human coronavirus OC43) was 29.8 µM.

`CO[C@@H]1[C@@H](O[C@@H]2O[C@H](C)[C@@H](O[C@H]3C[C@@](C)(O)[C@@H](O)[C@H](C)O3)[C@H](N(C)C)[C@H]2OC(=O)c2ccc(C(F)(F)F)cc2)[C@@H](CC=O)C[C@@H](C)[C@@H](O[C@H]2CC[C@H](N(C)C)[C@@H](C)O2)/C=C/C=C/C[C@@H](C)OC(=O)C[C@H]1O` gave a selectivity ratio [1] of 1.1, a CC50 at 72 h [2] of 6.74 µM and an EC50 (Human coronavirus OC43) of 5.96 µM.

With `CO[C@@H]1[C@@H](O[C@@H]2O[C@H](C)[C@@H](O[C@H]3C[C@@](C)(O)[C@@H](O)[C@H](C)O3)[C@H](N(C)C)[C@H]2OC(=O)CC(C)(C)C)[C@@H](CC=O)C[C@@H](C)[C@@H](O[C@H]2CC[C@H](N(C)C)[C@@H](C)O2)/C=C/C=C/C[C@@H](C)OC(=O)C[C@H]1O` the selectivity ratio [1] was 2.7, the CC50 at 72 h [2] was 13.4 µM and the EC50 (Human coronavirus OC43) was 4.89 µM.

For `CO[C@@H]1[C@@H](O[C@@H]2O[C@H](C)[C@@H](O[C@H]3C[C@@](C)(O)[C@@H](O)[C@H](C)O3)[C@H](N(C)C)[C@H]2OC(=O)CCCc2ccccc2)[C@@H](CC=O)C[C@@H](C)[C@@H](O[C@H]2CC[C@H](N(C)C)[C@@H](C)O2)/C=C/C=C/C[C@@H](C)OC(=O)C[C@H]1O`, the selectivity ratio [1] was 3.3, the CC50 at 72 h [2] was 39.3 µM and the EC50 (Human coronavirus OC43) was 11.9 µM.

For `CO[C@@H]1[C@@H](O[C@@H]2O[C@H](C)[C@@H](O[C@H]3C[C@@](C)(O)[C@@H](O)[C@H](C)O3)[C@H](N(C)C)[C@H]2OC(=O)C2CCCC2)[C@@H](CC=O)C[C@@H](C)[C@@H](O[C@H]2CC[C@H](N(C)C)[C@@H](C)O2)/C=C/C=C/C[C@@H](C)OC(=O)C[C@H]1O`, the selectivity ratio [1] was less than 1.6, the CC50 at 72 h [2] was 20 µM and the EC50 (Human coronavirus OC43) was greater than 12.5 µM.

Compound `C=CC(=O)O[C@H]1[C@H](C)O[C@@H](O[C@H]2[C@H](N(C)C)[C@@H](O)[C@H](O[C@H]3[C@@H](CC=O)C[C@@H](C)[C@@H](O[C@H]4CC[C@H](N(C)C)[C@@H](C)O4)/C=C/C=C/C[C@@H](C)OC(=O)C[C@@H](O)[C@@H]3OC)O[C@@H]2C)C[C@@]1(C)O` has a selectivity ratio [1] of 3.2, a CC50 at 72 h [2] of 38.4 µM and an EC50 (Human coronavirus OC43) of 12 µM.

`COc1ccc(CCC(=O)O[C@H]2[C@H](O[C@H]3[C@@H](CC=O)C[C@@H](C)[C@@H](O[C@H]4CC[C@H](N(C)C)[C@@H](C)O4)/C=C/C=C/C[C@@H](C)OC(=O)C[C@@H](O)[C@@H]3OC)O[C@H](C)[C@@H](O[C@H]3C[C@@](C)(O)[C@@H](O)[C@H](C)O3)[C@@H]2N(C)C)cc1` gave a selectivity ratio [1] of 3, a CC50 at 72 h [2] of 13.8 µM and an EC50 (Human coronavirus OC43) of 4.52 µM.

`C=CC(=O)O[C@H]1[C@H](C)O[C@@H](O[C@H]2[C@H](N(C)C)[C@@H](OC(C)=O)[C@H](O[C@H]3[C@@H](CC=O)C[C@@H](C)[C@@H](O[C@H]4CC[C@H](N(C)C)[C@@H](C)O4)/C=C/C=C/C[C@@H](C)OC(=O)C[C@@H](O)[C@@H]3OC)O[C@@H]2C)C[C@@]1(C)O` showed a selectivity ratio [1] of 4, a CC50 at 72 h [2] of 18.9 µM and an EC50 (Human coronavirus OC43) of 4.78 µM.

`CO[C@@H]1[C@@H](O[C@@H]2O[C@H](C)[C@@H](O[C@H]3C[C@@](C)(O)[C@@H](O)[C@H](C)O3)[C@H](N(C)C)[C@H]2OC(=O)CCc2ccccc2)[C@@H](CC=O)C[C@@H](C)[C@@H](O[C@H]2CC[C@H](N(C)C)[C@@H](C)O2)/C=C/C=C/C[C@@H](C)OC(=O)C[C@H]1O` gave a selectivity ratio [1] of 4.8, a CC50 at 72 h [2] of 18.9 µM and an EC50 (Human coronavirus OC43) of 3.89 µM.

`COc1ccc(CC(=O)O[C@H]2[C@H](C)O[C@@H](O[C@H]3[C@H](N(C)C)[C@@H](OC(C)=O)[C@H](O[C@H]4[C@@H](CC=O)C[C@@H](C)[C@@H](O[C@H]5CC[C@H](N(C)C)[C@@H](C)O5)/C=C/C=C/C[C@@H](C)OC(=O)C[C@@H](O)[C@@H]4OC)O[C@@H]3C)C[C@@]2(C)O)cc1` showed a selectivity ratio [1] of less than 2.1, a CC50 at 72 h [2] of 13.1 µM and an EC50 (Human coronavirus OC43) greater than 6.25 µM.

Compound `CCCCC(=O)O[C@H]1[C@H](C)O[C@@H](O[C@H]2[C@H](N(C)C)[C@@H](O)[C@H](O[C@H]3[C@@H](CC=O)C[C@@H](C)[C@@H](O[C@H]4CC[C@H](N(C)C)[C@@H](C)O4)/C=C/C=C/C[C@@H](C)OC(=O)C[C@@H](O)[C@@H]3OC)O[C@@H]2C)C[C@@]1(C)O` has a selectivity ratio [1] of 6.1, a CC50 at 72 h [2] of 34 µM and an EC50 (Human coronavirus OC43) of 5.61 µM.

For `CO[C@@H]1[C@@H](O[C@@H]2O[C@H](C)[C@@H](O[C@H]3C[C@@](C)(O)[C@@H](OC(=O)CC(C)C)[C@H](C)O3)[C@H](N(C)C)[C@H]2OC(C)=O)[C@@H](CC=O)C[C@@H](C)[C@@H](O[C@H]2CC[C@H](N(C)C)[C@@H](C)O2)/C=C/C=C/C[C@@H](C)OC(=O)C[C@H]1O`, the selectivity ratio [1] was 3.3, the CC50 at 72 h [2] was 25.7 µM and the EC50 (Human coronavirus OC43) was 7.89 µM.

Compound `CCCCC(=O)O[C@H]1[C@H](O[C@H]2[C@@H](CC=O)C[C@@H](C)[C@@H](O[C@H]3CC[C@H](N(C)C)[C@@H](C)O3)/C=C/C=C/C[C@@H](C)OC(=O)C[C@@H](O)[C@@H]2OC)O[C@H](C)[C@@H](O[C@H]2C[C@@](C)(O)[C@@H](O)[C@H](C)O2)[C@@H]1N(C)C` has a selectivity ratio [1] of 6.2, a CC50 at 72 h [2] of 33.5 µM and an EC50 (Human coronavirus OC43) of 5.35 µM.

For `CO[C@@H]1[C@@H](O[C@@H]2O[C@H](C)[C@@H](O[C@H]3C[C@@](C)(O)[C@@H](OC(=O)Cc4ccc(Cl)cc4)[C@H](C)O3)[C@H](N(C)C)[C@H]2OC(C)=O)[C@@H](CC=O)C[C@@H](C)[C@@H](O[C@H]2CC[C@H](N(C)C)[C@@H](C)O2)/C=C/C=C/C[C@@H](C)OC(=O)C[C@H]1O`, the selectivity ratio [1] was less than 1.2, the CC50 at 72 h [2] was 7.4 µM and the EC50 (Human coronavirus OC43) was greater than 6.25 µM.

Work on `CCCCCC(=O)O[C@H]1[C@H](O[C@H]2[C@@H](CC=O)C[C@@H](C)[C@@H](O[C@H]3CC[C@H](N(C)C)[C@@H](C)O3)/C=C/C=C/C[C@@H](C)OC(=O)C[C@@H](O)[C@@H]2OC)O[C@H](C)[C@@H](O[C@H]2C[C@@](C)(O)[C@@H](O)[C@H](C)O2)[C@@H]1N(C)C` yielded a selectivity ratio [1] of 3.6, a CC50 at 72 h [2] of 18.2 µM and an EC50 (Human coronavirus OC43) of 5.05 µM.

In the case of `CCCC(=O)O[C@H]1[C@H](O[C@H]2[C@@H](CC=O)C[C@@H](C)[C@@H](O[C@H]3CC[C@H](N(C)C)[C@@H](C)O3)/C=C/C=C/C[C@@H](C)OC(=O)C[C@@H](O)[C@@H]2OC)O[C@H](C)[C@@H](O[C@H]2C[C@@](C)(O)[C@@H](O)[C@H](C)O2)[C@@H]1N(C)C`, the selectivity ratio [1] is reported as 7.8, the CC50 at 72 h [2] is reported as 68 µM and the EC50 (Human coronavirus OC43) is reported as 8.73 µM.

With `CO[C@@H]1[C@@H](O[C@@H]2O[C@H](C)[C@@H](O[C@H]3C[C@@](C)(O)[C@@H](O)[C@H](C)O3)[C@H](N(C)C)[C@H]2OC(=O)c2ccc(F)c(C(F)(F)F)c2)[C@@H](CC=O)C[C@@H](C)[C@@H](O[C@H]2CC[C@H](N(C)C)[C@@H](C)O2)/C=C/C=C/C[C@@H](C)OC(=O)C[C@H]1O` the selectivity ratio [1] was 3.1, the CC50 at 72 h [2] was 5.52 µM and the EC50 (Human coronavirus OC43) was 1.79 µM.

`CO[C@@H]1[C@@H](O[C@@H]2O[C@H](C)[C@@H](O[C@H]3C[C@@](C)(O)[C@@H](O)[C@H](C)O3)[C@H](N(C)C)[C@H]2OC(=O)/C=C/c2ccccc2)[C@@H](CC=O)C[C@@H](C)[C@@H](O[C@H]2CC[C@H](N(C)C)[C@@H](C)O2)/C=C/C=C/C[C@@H](C)OC(=O)C[C@H]1O` showed a selectivity ratio [1] of 3.8, a CC50 at 72 h [2] of 5.57 µM and an EC50 (Human coronavirus OC43) of 1.48 µM.

In the case of `CC(C)C(=O)OC[C@H]1O[C@@H](n2ccc(NO)nc2=O)[C@H](O)[C@@H]1O` [MOLNUPIRAVIR], the selectivity ratio [1] is reported as 196 and the EC50 (Human coronavirus OC43) is reported as 0.16 µM.

With `COc1ccc(CC(=O)O[C@H]2[C@H](C)O[C@@H](O[C@H]3[C@H](N(C)C)[C@@H](O)[C@H](O[C@H]4[C@@H](CC=O)C[C@@H](C)[C@@H](O[C@H]5CC[C@H](N(C)C)[C@@H](C)O5)/C=C/C=C/C[C@@H](C)OC(=O)C[C@@H](O)[C@@H]4OC)O[C@@H]3C)C[C@@]2(C)O)cc1` the selectivity ratio [1] was less than 2.2, the CC50 at 72 h [2] was 27 µM and the EC50 (Human coronavirus OC43) was greater than 12.5 µM.

Work on `CO[C@@H]1[C@@H](O[C@@H]2O[C@H](C)[C@@H](O[C@H]3C[C@@](C)(O)[C@@H](O)[C@H](C)O3)[C@H](N(C)C)[C@H]2OC(=O)C(C)(C)C)[C@@H](CC=O)C[C@@H](C)[C@@H](O[C@H]2CC[C@H](N(C)C)[C@@H](C)O2)/C=C/C=C/C[C@@H](C)OC(=O)C[C@H]1O` yielded a selectivity ratio [1] of 3.6, a CC50 at 72 h [2] of 16.2 µM and an EC50 (Human coronavirus OC43) of 4.5 µM.

Compound `CO[C@@H]1[C@@H](O[C@@H]2O[C@H](C)[C@@H](O[C@H]3C[C@@](C)(O)[C@@H](O)[C@H](C)O3)[C@H](N(C)C)[C@H]2OC(=O)C2CCC2)[C@@H](CC=O)C[C@@H](C)[C@@H](O[C@H]2CC[C@H](N(C)C)[C@@H](C)O2)/C=C/C=C/C[C@@H](C)OC(=O)C[C@H]1O` has a selectivity ratio [1] of less than 2.2, a CC50 at 72 h [2] of 13.7 µM and an EC50 (Human coronavirus OC43) greater than 6.25 µM.

`CO[C@@H]1[C@@H](O[C@@H]2O[C@H](C)[C@@H](O[C@H]3C[C@@](C)(O)[C@@H](O)[C@H](C)O3)[C@H](N(C)C)[C@H]2OC(=O)CC(C)C)[C@@H](CC=O)C[C@@H](C)[C@@H](O[C@H]2CC[C@H](N(C)C)[C@@H](C)O2)/C=C/C=C/C[C@@H](C)OC(=O)C[C@H]1O` gave a selectivity ratio [1] of 3.5, a CC50 at 72 h [2] of 17.1 µM and an EC50 (Human coronavirus OC43) of 4.82 µM.

Work on `CCCC(=O)O[C@H]1[C@H](C)O[C@@H](O[C@H]2[C@H](N(C)C)[C@@H](O)[C@H](O[C@H]3[C@@H](CC=O)C[C@@H](C)[C@@H](O[C@H]4CC[C@H](N(C)C)[C@@H](C)O4)/C=C/C=C/C[C@@H](C)OC(=O)C[C@@H](O)[C@@H]3OC)O[C@@H]2C)C[C@@]1(C)O` yielded a selectivity ratio [1] of 6.4, a CC50 at 72 h [2] of 33.1 µM and an EC50 (Human coronavirus OC43) of 5.17 µM.
